Data on 11 molecules can be found in ChEMBL document CHEMBL1201862, “PubChem BioAssay data set” (2004).

Common to all, as to test: NCI tumour cell line growth inhibition, 48 h
For assay [1], the system named is SW-620.
The subject of assay [2] is 786-0.
The test system of assay [3] is IGROV-1.
Assay [4] concerns NCI-H460.
Assay [5] relates to HOP-62.
Assay [6] concerns ACHN.
For assay [7], the system named is SK-MEL-28.
Assay [8] relates to UO-31.
The subject of assay [9] is RPMI-8226.
The subject of assay [10] is LOX IMVI.
Assay [11] deals with HT-29.
In assay [12] the test system is UACC-62.
Assay [13] deals with NCI-H23.
The subject of assay [14] is OVCAR-3.
For assay [15], the system named is HCT-116.
Assay [16] concerns SF-295.
The subject of assay [17] is PC-3.
Assay [18] deals with DU-145.
The test system of assay [19] is MCF7.

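Briefly, cells in 96-well plates were exposed to five compound concentrations for 48 h, and endpoints were estimated by linear interpolation. GI50 = concentration required for 50% inhibition of growth.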 Active and inactive are the calls of the source. Rule as the data show it: active = GI50 up to about 1.1 µM and inactive = higher.

For the molecule `O=c1c2c(c1=O)-c1ccccc1CN2`, the GI50 in [1], in assay [2], in assay [3], in [4], in [5] and in [6] was > 100 µM (inactive) throughout. Also, the GI50 in assay [7], in assay [8], in assay [9], in assay [10], in assay [11] and in assay [12] was > 100 µM (inactive) throughout. In addition, the GI50 in [13], in [14] and in [15] was > 100 µM (inactive) in each case.
For `NC1=NS(=O)(=O)Nc2nc(-c3ccc(Cl)cc3)[nH]c21`, the GI50 in assay [1], in assay [2], in [3], in assay [4], in [5] and in [6] was > 100 µM (inactive) each time. In addition, the GI50 in assay [16], in assay [7], in [8], in assay [9], in assay [10] and in assay [11] was > 100 µM (inactive) in each case. The GI50 in [12], in [13], in [14] and in [15] was > 100 µM (inactive) in each case.
As for `Cc1cn(C2OC(C)(CO)C(O)C2O)c(=O)[nH]c1=O` (stereo unspecified), the GI50 in assay [1], in assay [2], in [3], in [4], in [5] and in [6] was > 100 µM (inactive) throughout. In addition, the GI50 in assay [16], in assay [7], in assay [8], in assay [9], in [10] and in [11] was > 100 µM (inactive) throughout. For the same molecule, the GI50 in assay [12], in [13], in assay [14] and in [15] was > 100 µM (inactive) each time.
Turning to `C=C(NC(=O)C(=C)NC(=O)c1csc(C2=NC3c4csc(n4)C4NC(=O)c5csc(n5)C(C(C)(O)C(C)O)NC(=O)C5CSC(=N5)/C(=C/C)NC(=O)C(C(C)O)NC(=O)c5csc(n5)C3(CC2)NC(=O)C(C)NC(=O)C(=C)NC(=O)C(C)NC(=O)C(C(C)CC)NC2C=Cc3c(C(C)O)cc(nc3C2O)C(=O)OC4C)n1)C(N)=O` (stereo unspecified), the GI50 in assay [1] was 0.412 µM (active); in [2] it was 1.54 µM (inactive); in [3], 9.06 µM (inactive); in assay [4] it was 1.72 µM (inactive); in assay [5], 9.35 µM (inactive); in [6], 2.32 µM (inactive). In addition, the GI50 in assay [16] is 4 µM (inactive); in [7], 1.27 µM (inactive); in [8], > 78.3 µM (inactive); in assay [9] it was 0.644 µM (active); in assay [10], 1.08 µM (active); in assay [11] it was 1.43 µM (inactive). In addition, the GI50 in [12] was 1.24 µM (inactive); in assay [13] it was 2.79 µM (inactive); in assay [14] it was 1.75 µM (inactive); in assay [15], 0.51 µM (active).
Consider `COc1ccc2nc3ccc(OC)cc3c(SCc3ccc([N+](=O)[O-])cc3)c2c1`, for which the GI50 in [1] was > 100 µM (inactive); in [2] it was 24.7 µM (inactive); in assay [3] it was 63.5 µM (inactive); in [17] it was 68.2 µM (inactive); in assay [18], > 100 µM (inactive); in assay [4], > 100 µM (inactive). Further, the GI50 in assay [5] was 78.9 µM (inactive); in assay [6], 79.1 µM (inactive); in assay [16], 31.5 µM (inactive); in assay [7], > 100 µM (inactive); in assay [8], > 100 µM (inactive); in assay [10], > 100 µM (inactive). Besides, the GI50 in assay [11] was 24.1 µM (inactive); in assay [12], > 100 µM (inactive); in [13] it was 50 µM (inactive); in [14], 63 µM (inactive); in [15], 70.3 µM (inactive).
Consider `CCOC(=O)Cn1nc2ccc(Nc3c(C)[n+]([O-])c4cc(F)c(OCC)cc4[n+]3[O-])cc2n1`, for which the GI50 is > 100 µM (inactive) in [1]; 29.8 µM (inactive) in [2]; > 100 µM (inactive) in assay [3]; > 100 µM (inactive) in assay [17]; > 100 µM (inactive) in assay [18]; > 100 µM (inactive) in assay [4]. Moreover, the GI50 in [5] is 33 µM (inactive); in assay [6] it was 22.4 µM (inactive); in [16] it was 44.2 µM (inactive); in assay [7], > 100 µM (inactive); in assay [8] it was > 100 µM (inactive); in assay [9] it was > 100 µM (inactive). For the same molecule, the GI50 in assay [10], in [19], in assay [11], in assay [13], in assay [14] and in assay [15] was > 100 µM (inactive) throughout.
For the molecule `CCOC(=O)C1C(C(C)C)C2(C#N)C(=N)OC1(C)C2(C#N)C#N` (stereo unspecified), the GI50 in assay [1] is 62.1 µM (inactive); in assay [2], 54 µM (inactive); in assay [3], 88.3 µM (inactive); in [17] it was > 100 µM (inactive); in assay [18], > 100 µM (inactive); in assay [6] it was > 100 µM (inactive). The GI50 in assay [16] was > 100 µM (inactive); in [7], > 100 µM (inactive); in [8] it was > 100 µM (inactive); in [9], 32.8 µM (inactive); in [10] it was 43.3 µM (inactive); in assay [19] it was 59.4 µM (inactive). In addition, the GI50 in assay [11] was 82 µM (inactive); in assay [12], 88.9 µM (inactive); in assay [13], 54.5 µM (inactive); in assay [15], 56 µM (inactive).
As for `CC(CN(C)C)C(=O)c1ccccc1` (stereo unspecified), the GI50 in assay [1] is 12.9 µM (inactive); in assay [2], 22.6 µM (inactive); in [3] it was > 100 µM (inactive); in assay [4] it was > 78.7 µM (inactive); in [5] it was > 100 µM (inactive); in [6], 24.8 µM (inactive). Also, the GI50 is > 100 µM (inactive) in assay [16]; > 41.7 µM (inactive) in assay [7]; > 31.6 µM (inactive) in assay [8]; 0.94 µM (active) in assay [9]; 14.9 µM (inactive) in assay [10]; 20 µM (inactive) in assay [11]. For the same molecule, the GI50 in assay [12] is 35.8 µM (inactive); in [13] it was 24.9 µM (inactive); in assay [14], 42.4 µM (inactive); in assay [15] it was 28.8 µM (inactive).
`Cc1cc2c3ccccc3[nH]c2c2ccnc(C)c12`: the GI50 in assay [1] is 2.47 µM (inactive); in assay [2] it was 1.65 µM (inactive); in assay [3], 15.2 µM (inactive); in [17], 10.2 µM (inactive); in assay [18], 6.47 µM (inactive); in [4], 2.35 µM (inactive). The GI50 in assay [5] is 13.6 µM (inactive); in [6] it was 15.7 µM (inactive); in assay [16] it was 20 µM (inactive); in assay [7], 1.77 µM (inactive); in [8], 14.2 µM (inactive); in [9], 3.21 µM (inactive). Besides, the GI50 was 2.15 µM (inactive) in assay [10]; 27.9 µM (inactive) in assay [19]; 3.55 µM (inactive) in [11]; 7.36 µM (inactive) in assay [12]; 12.5 µM (inactive) in [13]; 10.3 µM (inactive) in [14]. Further, in [15], the GI50 was 2.21 µM (inactive).
As for `O=C1N(CN2CCOCC2)CN(CN2CCOCC2)C(=O)N1Cc1ccc(CN2C(=O)N(CN3CCOCC3)CN(CN3CCOCC3)C2=O)cc1`, the GI50 was 43 µM (inactive) in assay [1]; 28.8 µM (inactive) in assay [2]; > 100 µM (inactive) in assay [3]; 45.6 µM (inactive) in [17]; 45.8 µM (inactive) in assay [18]; 36.9 µM (inactive) in assay [4]. Besides, the GI50 in assay [5] is > 100 µM (inactive); in assay [6], 41.8 µM (inactive); in [16], > 100 µM (inactive); in [7], 31.3 µM (inactive); in assay [8], 44.4 µM (inactive); in assay [9], 22.7 µM (inactive). Further, the GI50 in assay [10] was 23.9 µM (inactive); in assay [19], 38.9 µM (inactive); in assay [11], 42 µM (inactive); in [12] it was 31.2 µM (inactive); in assay [13], 34.4 µM (inactive); in assay [14] it was 31.6 µM (inactive). Further, the GI50 in assay [15] was 33.6 µM (inactive).
As for `CCOC(OCC)[C@H](N)[C@@H](O)[C@@H](O)[C@H]1COC(C)(C)O1`, the GI50 in assay [1], in assay [2], in assay [3], in assay [17], in assay [18] and in assay [5] was > 100 µM (inactive) throughout. Moreover, the GI50 in [6], in assay [16], in [7], in assay [8], in assay [9] and in assay [10] was > 100 µM (inactive) each time. In addition, the GI50 in assay [19], in [11], in assay [12], in [13], in assay [14] and in assay [15] was > 100 µM (inactive) in each case.
